Entries after “also recorded” stand apart in the source; their conditions may differ.

The values that follow come from patent publication US20040171688A1, “Carboxylic acids and derivatives thereof and pharmaceutical compositions containing them” (priority 1997, published 2004).

The target in test [1] is T1, HNF-4α (Rattus norvegicus, UniProt P22449).
T1 sequence (P22449 1-464 isoform P22449-2): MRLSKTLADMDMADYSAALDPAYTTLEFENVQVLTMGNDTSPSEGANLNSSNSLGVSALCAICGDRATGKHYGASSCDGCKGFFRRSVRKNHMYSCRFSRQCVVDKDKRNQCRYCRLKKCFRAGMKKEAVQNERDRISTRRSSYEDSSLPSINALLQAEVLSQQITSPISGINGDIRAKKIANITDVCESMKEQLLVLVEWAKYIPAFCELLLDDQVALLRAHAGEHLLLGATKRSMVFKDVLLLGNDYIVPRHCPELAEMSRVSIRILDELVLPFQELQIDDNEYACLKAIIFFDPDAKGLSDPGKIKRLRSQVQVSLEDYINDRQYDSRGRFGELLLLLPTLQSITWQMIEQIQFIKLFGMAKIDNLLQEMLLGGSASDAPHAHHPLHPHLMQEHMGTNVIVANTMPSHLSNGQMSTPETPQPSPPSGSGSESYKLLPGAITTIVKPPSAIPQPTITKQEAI
The experiment in a line: Gel mobility shift assay: His-HNF-4α binding to C3P apo CIII promoter oligonucleotide. The format is biochemical. Also noted: The full length HNF-4α1 cDNA cloned into 6His-pET11d vector was expressed in E.coli BL21 (DE3)plysS; 6His; made in house; host or cells: E. coli BL21 (DE3)plysS. Conditions: for effect on His-HNF-4α binding to C3P oligonucleotide: gel mobility shift, 10 μM acyl-CoA (FIG. 2). The protocol: a. His-HNF-4I (14 ng) binding to C3P in the absence (lane 1) or presence of 10 μM each of myristoyl(14:0)-CoA (lane 2) or palmitoyl(16:0)-CoA (lane 3).
b. His-HNF-4I (20 ng) binding to C3P in the absence (lane 1) or presence of 10 μM each of stearoyl(18:0)-CoA (lane 2) or linolenoyl(18:3, w-3)-CoA (lane 3).
c. Activation of His-HNF-4I (14 ng) binding to C3P by increasing concentrations of myristoyl(14:0)-CoA. The gel section containing radiolabeled C3P bound to His-HNF-4I dimer is shown.
His-HNF-4α and acyl-CoA (as indicated) were preincubated for 30 min at 22° C. in 11 mM Hepes (pH 7.9) containing 50 mM KCl, 1 mM dithiothreitol. 2.5 mM MgCl2, 10% glycerol, 1 μg of poly(dI-dC) in a final volume of 20 μl. ^32P-labeled oligonucleotide (0.1 ng) consisting of the human C3P apo CIII promoter sequence,(−87/−66)^6 was then added, and incubation was continued for an additional 15 min. Protein-DNA complexes were resolved by 5% nondenaturing polyacrylamide gel in 0.6×TBE and quantitated by PhosphorImager analysis.
HNF-4α activity as a function of binding of long chain acyl-CoAs was evaluated by studying the binding of HNF-4α to its cognate C3P element of the apo CIII promoter sequence (−87/−66)^6 in the presence or absence of added acyl-CoAs of variable chain length, degree of saturation, and degree of substitution. Binding was verified by using a gel mobility shift assay. […] Activation was concentration dependent and maximal in the presence of myristoyl(14:0)-CoA added within a concentration range required for its binding to HNF-4α.

For test [2], the target named is T2, HNF-4α (Rattus norvegicus, UniProt P22449).
T2 construct: GST-HNF-4α(LBD) fusion protein consisting of amino acids 96-455 of wild type HNF-4α fused to GST; fused on or other part: Glutathione-S-transferase (GST) at the N-terminus of the LBD construct; 6-histidine tag on the full-length construct
T2 sequence (P22449 105-464 isoform P22449-2 limits assumed): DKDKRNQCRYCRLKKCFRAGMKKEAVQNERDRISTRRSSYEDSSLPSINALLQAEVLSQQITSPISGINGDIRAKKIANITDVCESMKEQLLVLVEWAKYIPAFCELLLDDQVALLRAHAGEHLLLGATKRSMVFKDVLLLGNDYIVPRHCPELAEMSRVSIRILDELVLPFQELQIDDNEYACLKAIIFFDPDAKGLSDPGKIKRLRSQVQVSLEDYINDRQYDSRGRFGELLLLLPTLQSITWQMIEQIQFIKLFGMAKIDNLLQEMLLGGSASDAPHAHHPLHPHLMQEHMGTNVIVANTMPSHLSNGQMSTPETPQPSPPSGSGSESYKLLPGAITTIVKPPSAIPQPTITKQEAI
The experiment in a line: Ligand binding assay with [3H]palmitoyl(16:0)-CoA on recombinant GST-HNF-4α(LBD) or His-HNF-4α. Conditions: competition with 8 nM [3H]palmitoyl(16:0)-CoA; GST-HNF-4α(LBD) or His-HNF-4α; read-out: EC50 (50% specific competition).

Turning to `CCCCCCCCCCCCCCCCCC(=O)SCCNC(=O)CCNC(=O)[C@H](O)C(C)(C)COP(=O)(O)OP(=O)(O)OC[C@H]1O[C@@H](n2cnc3c(N)ncnc32)[C@H](O)[C@@H]1OP(=O)(O)O` [Stearoyl(18:0)-CoA], the “effect on His-HNF-4α binding to C3P oligonucleotide” value on HNF-4α [1] is “potent inhibition”. Also, the “direct effect on HNF-4α (summary)” value at HNF-4α [1] (summary statement of Example 4) was “antagonistic effect”. Besides, the EC50 on HNF-4α [2] is 2700 nM.
For the compound `CCCCCCCCCCCCCC(=O)SCCNC(=O)CCNC(=O)[C@H](O)C(C)(C)COP(=O)(O)OP(=O)(O)OC[C@H]1O[C@@H](n2cnc3c(N)ncnc32)[C@H](O)[C@@H]1OP(=O)(O)O` [myristoyl(14:0)-CoA, reference compound], the “effect on His-HNF-4α binding to C3P oligonucleotide” value on HNF-4α [1] is recorded as “Activation; also recorded: maximal”. Also, the EC50 on HNF-4α [2] amounted to 1400 nM.
